According to patent US20240335427A1, “SMALL MOLECULE INHIBITION OF DEUBIQUITINATING ENZYME JOSEPHIN DOMAIN CONTAINING 1 (JOSD1) AS A TARGETED THERAPY FOR LEUKEMIAS WITH MUTANT JANUS KINASE 2 (JAK2)” (DANA-FARBER CANCER INSTITUTE, INC., priority 2021, published 2024):

molecular target: JOSD1 (Homo sapiens (Human), UniProt Q15040); experiment: In vitro JOSD1 activity assay (biochemical IC50, purified enzyme); conditions: read-out: JOSD1 IC50
Protocol: In vitro JOSD1 activity assay & Ubiquitin-7-amido-4-methylcoumarin (AMC) assay. In vitro JOSD1 activity assay was carried out with Ubiquitin-AMC assay. […] Recombinant JOSD1 was tested for activity in a Ubiquitin-AMC assay in the presence or absence of inhibitors. […] The reaction was incubated for 6 hours at room temperature prior to the addition of 2 μM Ubiquitin-AMC (Boston Biochem) substrate. The initial rate of the reaction was measured by collecting fluorescence data at one-minute intervals over a 30-minute period using a Clariostar® fluorescence plate reader at excitation and emission wavelengths of 345 and 445 nm, respectively. The calculated initial rate values were plotted against inhibitor concentrations to determine IC50 values.
In vitro JOSD1 activity assay. Recombinant full-length JOSD1 was tested for activity in a Ubiquitin-AMC assay in the presence or absence or inhibitors. For this assay, 10 nM JOSD1 was pre-incubated with different concentrations of inhibitors or DMSO as a control in 50 mM Tris 8.0, 0.5 mM EDTA, 10 mM ovalbumin, 5 mM DTT. The reaction was incubated for 6 h at room temperature prior to the addition of 2 mM Ubiquitin-AMC (Boston Biochem) substrate. The initial rate of the reaction was measured by collecting fluorescence data at one-minute intervals over a 30-minute period using a CLARIOstar® fluorescence plate reader at excitation and emission wavelengths of 345 and 445 nm, respectively. The calculated initial rate values were plotted against inhibitor concentrations to determine IC50 values.
JOSD1 biochemical inhibition was investigated for the analogs shown using the fluorescent substrate ubiquitin-rhodamine against purified enzyme in a continuous kinetic assay.

Row | IC50 [µM] | SMILES
1 | 0.16 | N#CN1CC[C@H](C(=O)Nc2nc(-c3ccccc3)cs2)C1 [Compound 11, (S)-1-cyano-N-(4-phenylthiazol-2-yl)pyrrolidine-3-carboxamide]
2 | 0.288 | N#CN1CC[C@H](C(=O)Nc2nc3ccc(Br)nc3s2)C1 [Compound 15, (S)—N-(5-bromothiazolo[5,4-b]pyridin-2-yl)-1-cyanopyrrolidine-3-carboxamide]
3 | 0.099 | N#CN1CCC(C(=O)Nc2nc3ccc(C4CC4)cc3s2)C1 (stereo in doubt) [Compound 8, (R)-1-cyano-N-(6-cyclopropylbenzo[d]thiazol-2-yl)pyrrolidine-3-carboxamide]
4 | 0.082 | CCn1cc(-c2ccc3nc(NC(=O)[C@@H]4CCN(C#N)C4)sc3c2)cn1 [Compound 6, (R)-1-cyano-N-(6-(1-ethyl-1H-pyrazol-4-yl)benzo[d]thiazol-2-yl)pyrrolidine-3-carboxamide]
5 | 1.1 | N#CN1CC[C@H](C(=O)Nc2cnn(Cc3ccccc3)c2)C1 [Compound 27, (S)—N-(1-benzyl-1H-pyrazol-4-yl)-1-cyanopyrrolidine-3-carboxamide]
6 | 0.074 | Cc1noc(C)c1-c1cccc2sc(NC(=O)[C@H]3CCN(C#N)C3)nc12 [Compound 5, (S)-1-cyano-N-(4-(3,5-dimethylisoxazol-4-yl)benzo[d]thiazol-2-yl)pyrrolidine-3-carboxamide]
7 | 0.045 | Cc1noc(C)c1-c1ccc2sc(NC(=O)[C@H]3CCN(C#N)C3)nc2c1 [Compound 4, (S)-1-cyano-N-(5-(3,5-dimethylisoxazol-4-yl)benzo[d]thiazol-2-yl)pyrrolidine-3-carboxamide]
8 | 8.25 | C#CCNC(=O)c1ccc(-c2cnc(NC(=O)[C@H]3CCN(C#N)C3)s2)cc1 [Compound 44, (S)-1-cyano-N-(5-(4-(prop-2-yn-1-ylcarbamoyl)phenyl)thiazol-2-yl)pyrrolidine-3-carboxamide]
9 | 2.13 | Cc1sc(N(C)C(=O)[C@@H]2CCCN2C#N)nc1-c1cccc(C#N)n1 [Compound 34]
10 | 4.85 | N#CN1CC[C@H](C(=O)Nc2nc3ccccc3o2)C1 [Compound 39, (S)—N-(benzo[d]oxazol-2-yl)-1-cyanopyrrolidine-3-carboxamide]
11 | 0.52 | N#CN1CC[C@H](C(=O)Nc2nc3ccc(-c4c[nH]nc4C(F)(F)F)cc3s2)C1 [Compound 22, (S)-1-cyano-N-(6-(3-(trifluoromethyl)-1H-pyrazol-4-yl)benzo[d]thiazol-2-yl)pyrrolidine-3-carboxamide]
12 | 0.38 | Cc1cccc2sc(NC(=O)[C@H]3CCN(C#N)C3)nc12 [Compound 18, (S)-1-cyano-N-(4-methylbenzo[d]thiazol-2-yl)pyrrolidine-3-carboxamide]
13 | 0.27 | N#CN1CC[C@@H](C(=O)Nc2nc3ccc(-c4ccc(-c5ccccc5)cc4)cc3s2)C1 [Compound 14, (R)—N-(6-([1,1′-biphenyl]-4-yl)benzo[d]thiazol-2-yl)-1-cyanopyrrolidine-3-carboxamide]
14 | 0.16 | N#CN1CC[C@H](C(=O)Nc2ccc3c(cnn3Cc3ccccc3)c2)C1 [Compound 10, (S)—N-(1-benzyl-1H-indazol-5-yl)-1-cyanopyrrolidine-3-carboxamide]
15 | 6.42 | Cc1noc(C)c1-c1ccc2nc(NC(=O)c3ccnc(C#N)n3)sc2c1 [Compound 43, 2-Cyano-N-(6-(3,5-dimethyl-1λ^3,2λ^2-isoxazol-4-yl)benzo[d]thiazol-2-yl)pyrimidine-4-carboxamide]
16 | 0.46 | Cc1noc(C)c1-c1ccc2cnc(NC(=O)[C@H]3CCN(C#N)C3)cc2c1 [Compound 21]

molecular target: UCHL1 (Homo sapiens (Human), UniProt P09936); experiment: UCHL1 biochemical inhibition (ubiquitin hydrolase activity, purified enzyme); conditions: not given
Sequence (P09936 whole entry, species assumed): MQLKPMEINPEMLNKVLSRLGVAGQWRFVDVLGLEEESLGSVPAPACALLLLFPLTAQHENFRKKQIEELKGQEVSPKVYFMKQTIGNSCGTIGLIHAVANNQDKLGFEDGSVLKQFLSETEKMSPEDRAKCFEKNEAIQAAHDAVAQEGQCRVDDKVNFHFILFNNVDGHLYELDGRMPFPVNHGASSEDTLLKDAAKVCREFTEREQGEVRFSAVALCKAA

Row | IC50 [µM] | SMILES
17 | 2 | N#CN1CC[C@H](C(=O)Nc2nc3ccc(Br)nc3s2)C1 [Compound 15, (S)—N-(5-bromothiazolo[5,4-b]pyridin-2-yl)-1-cyanopyrrolidine-3-carboxamide]
18 | 0.012 | N#CN1CCC(C(=O)Nc2nc3ccc(C4CC4)cc3s2)C1 (stereo in doubt) [Compound 8, (R)-1-cyano-N-(6-cyclopropylbenzo[d]thiazol-2-yl)pyrrolidine-3-carboxamide]
19 | 2 | N#CN1CC[C@@H](C(=O)Nc2cn(Cc3ccccc3)cn2)C1 [Compound 29]
20 | 0.104 | N#CN1CC[C@H](C(=O)Nc2cn(Cc3ccccc3)cn2)C1 [Compound 32]
21 | 1.29 | Cc1noc(C)c1-c1ccc2nc(NC(=O)C3CN(C#N)C3)sc2c1 [Compound 47, 1-Cyano-N-(6-(3,5-dimethylisoxazol-4-yl)benzo[d]thiazol-2-yl)azetidine-3-carboxamide]
